Measurements taken from patent US8263344B2, “Compounds regulating calreticulin, KDEL receptor and/or Erp-57 cell surface exposure and uses thereof to evaluate the efficiency of a cancer treatment” (Institut Gustave Roussy, priority 2006, dated 2012).
Peptide text beside a SMILES is read from it. * marks the point of attachment. Cbz = O=C(OCc1ccccc1)*; CH2F = FC*

How the values were obtained:
CT26 cells [1] = assay: Phagocytosis of tumour cells by dendritic cells (DC); type: cell-based, BALB/c mice
Method: BM cells were flushed from the tibias and femurs of BALB/c mice with culture medium composed of RPMI 1640 medium (Invitrogen Life Technologies) supplemented with 10% heat-inactivated FBS (Invitrogen), sodium pyruvate, 50 μM 2-ME (Sigma), 10 mM HEPES (pH 7.4), and penicillin/streptomycin (Invitrogen). After one centrifugation, BM cells were resuspended in Tris-ammonium chloride for 2 min to lyse RBC. After one more centrifugation, BM cells (1×10^6 cells/ml) were cultured in medium supplemented with 100 ng/ml recombinant mouse FLT3 ligand (R&D systems) in 6-well plates (Costar Corning). After 7 days, the non-adherent and loosely adherent cells were harvested with Versene, washed and transferred in 12-well plates (1.5×10^6 cells/plate) for cocultures with tumour cells.
In 12-well plates, […] adherent CT26 cells were labelled with Celltracker Green (Calbiochem) and then incubated with drugs. In some experiments viable CT26 were coated with 2 μg/10^6 cells of chicken anti-CRT antibody (ABR affinity bioreagents) or an isotype control for 30 min prior to washing and feeding to dendritic cells Cs. Alternatively CT26 cells were coated with 2 μg/10^6 cells of rCRT on ice for 30 min and washed twice prior to addition to dendritic cells. Cells were then harvested, washed three times with medium supplemented with FBS and cocultured with immature DC for 2 hours at a ratio of 1:1 and 1:5. At the end of the incubation, cells were harvested with versene, pooled with non-adherent cells present in the supernatant, washed and stained with CD11c-FITC antibody. Phagocytosis was assessed by FACS analysis of double positive cells. Phagocytic indexes refer to the ratio between values obtained at 4° C. and values obtained at 37° C. of co-incubation between DC and tumour cells.

CT26 tumour cells = assay: Anti-tumour vaccination with treated (dying) CT26 cells and challenge with live tumour cells; type: in vivo, BALB/c mice; settings: for immunogenic apoptosis / immunogenic cell death (protection against tumour growth): dying CT26 cells injected into one flank, rechallenge with live tumour cells in opposite flank 8 days later
CT26 cells [2] = assay: Fluorescence detection of cell surface CRT; type: cell-based, murine
Method: CT26 cells were cultured at 37° C. under 5% CO2 in RPMI 1640 medium supplemented with 10% FCS, penicillin, streptomycin, 1 mM pyruvate and 10 mM HEPES in the presence of doxorubicin (DX; 24 h, 25 μM), mitoxantrone (Mitox; 24 h, 1 μM, Sigma), idarubicin (24 h, 1 μM, Aventis, France), mitomycin C (30 μM, 48 h; Sanofi-Synthelabo, France), and/or zVAD-fmk (50 μM, 24 h; Bachem), tunicamycin (24 h, 65 μM), thapsigargin (24 h, 30 μM), brefeldin A (24 h, 50 μM, Sigma), etoposide (48 h, 25 μM, Tava classics), MG132 (48 h, 10 μM), ALLN (48 h, […]), betulinic acid (24 h, 10 μM), Hoechst 33343 (24 h, 0.2 μM), camptothecine (24 h, 15 μM), lactacystin (48 h, 60 μM), BAY 11-8072 (24 h, 30 μM), staurosporine (24 h, 1.5 μM), bafilomycin A1 (48 h, 300 nM), arsenic trioxide (24 h, 30 μM), C2-ceramide (C2-C; 24 h, 60 μM), calyculin A (48 h, 30 nM), or tautomycin (48 h, […], Sigma) and/or salubrinal (48 h, […], Calbiochem).
CT26 cells (on a glass slide or in 12-well plates) were first washed with FACS buffer (1×PBS, 5% fetus bovine serum, and 0.1% sodium azide) and then incubated with rabbit anti-mouse CRT antibody (1:100, Stressgen) in FACS buffer at 4° C. for 30 min. Cells reacted with anti-rabbit IgG (H+L) Alexa fluor 488-conjugates (1:500) in FACS buffer at 4° C. for 30 min. After washing three times with FACS buffer, surface CRT was detected by cytofluorometric analysis on a FACS Vantage. In some experiments, cells were fixed with 4% paraformaldehyde, counterstained with Hoechst (2 μM; Sigma), followed by fluorescence microscopic assessment with a Leica IRE2 microscope equipped with a DC300F camera.

HeLa cells = assay: Surface ERp57 detection (immunofluorescence, flow cytometry); type: cell-based, human; settings: MTX 1 μM, 2 h
Method: HeLa cells were cultured on cover slips (in RPM1160 medium supplemented with 10% fetal calf serum, L-glutamine and antibiotics), in the absence (control) or in the presence of 1 μM mitoxantrone (MTX, Sigma) for 2 h. For the intracellular stainings, HeLa cells were fixed and permeabilised by means of Cytofix/Cytoperm kit from Becton Dickinson according to the manufacturer's instructions. For the surface stainings, HeLa cells were fixed with paraformadehyde (4% w/v) on ice for 5 min. […] Nuclei were labelled with DAPI mounting medium (Vectashield). Fluorescence microscopy was analyzed with a Leica IRE2 equipped with a DC300F camera. Size bars represent 10 μm.
HeLa cells were treated with or without mitoxantrone (MTX, 1 μM) or tautomycin (Tau, 150 nM, Sigma) for 2 h. Cells were washed twice with PBS and fixed in PFA (4% w/v) for 5 min. HeLa cells were stained with an antibody against Erp57 (pAb from Abcam, ab10827) at 1:200 dilution or isotype control, in staining buffer (PBS, 1% FCS) for 30 min on ice, followed by washing. An anti-rabbit Alexa fluor 488 immunoglobulin conjugate (Molecular Probes-Invitrogen) diluted at 1:500 was added for an additional 30 min on ice before washing and analysed by flow cytometry (FACScan, Becton Dickinson). […] The CellQuest software was used to analyse the mean fluorescence intensity (MFI) and the percentage of ERp57 positive cells.
FIG. 12: ERp57 exposure depends on the activation of a caspase. • (A) HeLa cells were treated with MTX (1 μM) for 2 h in the presence or absence of 50 μM zVAD.fmk. The MFI of surface Erp57 positive cells was analysed as described in FIG. 9. • (B) HCT116 parental cells stably transfected with either a vector encoding p35 (Stennicke et al., 2002; Date et al., 2003) or with a PCMV vector (Sigma) as control, were treated with MTX (1 μM) for 2 h. The MFI of surface Erp57 positive cells was analysed as described in FIG. 9. • (C) HCT116 cells were pre-incubated in the presence of 50 μM biotinylated VAD.fmk (Calbiochem) for 2 h. […]

CT26 cells [3] = assay: Biotinylation of cell surface proteins, 2D gel electrophoresis and mass spectrometry
CT26 tumours [4] = assay: Single intratumoural injection into established CT26 tumours, immunocompetent mice; type: in vivo, BALB/c mice
CT26 tumours [5] = assay: Single intratumoural injection into established CT26 tumours, athymic mice; parameters: species or system nu/nu Balb/c mice; settings: mouse, in vivo

## 5′-rCrCrGrCUrGrGrGUrCrGrArAUrCrRrArATT-3′ [specific siRNA]
CT26 cells [1]
  phagocytosis by DC of anthracyclin/mitoxantrone-treated tumour cells after blockade or knockdown of CRT: suppressed the phagocytosis

## CCCCCCCCCCCCC/C=C/[C@@H](O)[C@H](CO)NC(C)=O [C2 ceramide, C2-ceramide]
CT26 tumour cells
  immunogenic apoptosis / immunogenic cell death (protection against tumour growth): failed to induce immunogenic apoptosis

## CCCCCCCCCCCCC/C=C/[C@@H](O)[C@H](CO)NC(=O)CCCCCCCCCCCCCCC [C16-ceramide]
CT26 cells [2]; 30 μM, 2 h
  ecto-CRT after C16-ceramide: rapidly induces ecto-CRT

## CCOc1ccc(-c2nc3ccc(-c4nc5ccc(N6CCN(C)CC6)cc5[nH]4)cc3[nH]2)cc1 [Hoechst 33342]
CT26 tumour cells
  immunogenic apoptosis / immunogenic cell death (protection against tumour growth): failed to induce immunogenic apoptosis

## COC(=O)C[C@H](NC(=O)[C@H](C)NC(=O)[C@@H](NC(=O)OCc1ccccc1)C(C)C)C(=O)CF [Z-VAD-fmk] (Cbz-Val-Ala-Asp(OMe)-CH2F)
CT26 tumour cells; doxorubicin plus Z-VAD-fmk
  effect on immunogenicity of doxorubicin-elicited cell death: reduces the immunogenicity
HeLa cells
  effect on ERp57 exposure induced by MTX: abolished

## C[C@H]1CCC/C=C/[C@@H]2C[C@H](O)C[C@H]2[C@H](O)/C=C/C(=O)O1 [brefeldin, brefeldin A]
CT26 tumour cells
  immunogenic apoptosis / immunogenic cell death (protection against tumour growth): failed to induce immunogenic apoptosis

## COC[C@@H]([C@H](O)[C@H](O)C(=O)NCC[C@H](C)c1nc(/C=C/C[C@@H]2O[C@]3(C[C@@H](O)[C@@H]2C)O[C@H]([C@H](C[C@H](O)[C@H](C)[C@H](O)[C@H](C)/C=C(C)/C(C)=C/C=C/C(C)=C\C#N)OC)[C@H](OP(=O)(O)O)C3(C)C)co1)N(C)C [calyculin A]
CT26 tumour cells; mouse, in vivo
  immunogenic cell death by PP1/GADD34 inhibition alone: not sufficient to induce immunogenic cell death
CT26 cells [2]
  CRT exposure at the cell surface: efficiently induced

## CC[C@@]1(O)C(=O)OCc2c1cc1n(c2=O)Cc2cc3ccccc3nc2-1 [camptothecin]
CT26 tumour cells
  immunogenic apoptosis / immunogenic cell death (protection against tumour growth): failed to induce immunogenic apoptosis

## COc1cccc2c1C(=O)c1c(O)c3c(c(O)c1C2=O)C[C@@](O)(C(=O)CO)C[C@@H]3O[C@H]1C[C@H](N)[C@H](O)[C@H](C)O1 [doxorubicin]
CT26 tumour cells
  immunogenic apoptosis / immunogenic cell death (protection against tumour growth): elicited immunogenic cell death
CT26 cells [1]; within a few hours after treatment
  phagocytosis of treated tumour cells by DC: acquired the property to be phagocytosed by DC
CT26 cells [3]; 4 h, doxorubicin plus Z-VAD-fmk
  induction of surface CRT (factor), combined with Z-VAD-fmk: 1.8
CT26 cells [3]; 4 h treatment, 2D electrophoreses
  ERP57 surface exposure: specifically induced
CT26 cells [3]; short-term (4 h) treatment, biotinylated surface proteins, 2D electrophoreses
  induction of surface CRT (factor): 6

## COc1cc([C@@H]2c3cc4c(cc3[C@@H](O[C@@H]3O[C@@H]5CO[C@@H](C)O[C@H]5[C@H](O)[C@H]3O)[C@H]3COC(=O)[C@H]23)OCO4)cc(OC)c1O [etoposide]
CT26 tumours [4]; mouse, in vivo
  therapeutic effect of intratumoural injection, single agent, immunocompetent mice: no major therapeutic effect
CT26 tumour cells
  immunogenic apoptosis / immunogenic cell death (protection against tumour growth): failed to induce immunogenic apoptosis
CT26 tumour cells; mouse, in vivo
  immunogenicity of sham-coated cells treated with etoposide: poorly immunogenic
CT26 tumours [5]
  therapeutic effect of intratumoural injection, single agent, nu/nu mice: no major therapeutic effect
CT26 cells [2]
  CRT exposure at the cell surface: fail to induce ecto-CRT

## CC(=O)[C@]1(O)Cc2c(O)c3c(c(O)c2[C@@H](O[C@H]2C[C@H](N)[C@H](O)[C@H](C)O2)C1)C(=O)c1ccccc1C3=O [idarubicin]
CT26 tumour cells
  immunogenic apoptosis / immunogenic cell death (protection against tumour growth): elicited immunogenic cell death

## C/C1=C/C(=O)O[C@@H]2C[C@@H](CC[C@H](C)/C=C\C=C\CC1)O[C@@](O)([C@@H]1CSC(=O)N1)C2 [latrunculin A]
CT26 cells [2]; pre-incubation for 1 h with the inhibitor
  effect on CRT exposure induced by anthracyclins and PP1/GADD34 inhibitors: abolished

## CO[C@@]12[C@H](COC(N)=O)C3=C(C(=O)C(C)=C(N)C3=O)N1C[C@@H]1N[C@@H]12 [mitomycin C]
CT26 tumours [4]; mouse, in vivo
  therapeutic effect of intratumoural injection, single agent, immunocompetent mice: no major therapeutic effect
CT26 tumours [5]
  therapeutic effect of intratumoural injection, single agent, nu/nu mice: no major therapeutic effect
CT26 cells [2]
  CRT exposure at the cell surface: fail to induce ecto-CRT

## CO[C@H]([C@H](O)CC(=O)[C@@H](C)[C@@H](O)CC[C@@H](C)[C@@H]1O[C@]2(CC[C@@H](C)[C@H](CC[C@H](C)C(C)=O)O2)CC[C@@H]1C)[C@H](OC(=O)C[C@@H](O)C1=C(C)C(=O)OC1=O)C(C)C [tautomycin]
CT26 tumours [4]; established 14-day-old CT26 tumours
  therapeutic effect of intratumoural injection, single agent, immunocompetent mice: no major therapeutic effect
CT26 tumours [4]; intratumoural
  therapeutic effect combined with a cell death inducer (etoposide or mitomycin C), immunocompetent mice: stable disease or complete tumour regression
CT26 tumour cells; mouse, in vivo
  immunogenic cell death by PP1/GADD34 inhibition alone: not sufficient to induce immunogenic cell death
CT26 tumours [5]
  therapeutic effect of intratumoural injection, single agent, nu/nu mice: no major therapeutic effect
HeLa cells; Tau 150 nM
  surface exposure of ERp57: stimulates the surface exposure
CT26 cells [2]
  CRT exposure at the cell surface: efficiently induced

## C/C=C(/C)C(=O)O[C@H]1C(C)=C2[C@H]([C@@H]1OC(=O)CCCCCCC)[C@@](C)(OC(C)=O)C[C@H](OC(=O)CCC)[C@@]1(O)[C@H]2OC(=O)[C@@]1(C)O [thapsigargin]
CT26 tumour cells
  immunogenic apoptosis / immunogenic cell death (protection against tumour growth): failed to induce immunogenic apoptosis

## tunicamycin
CT26 tumour cells
  immunogenic apoptosis / immunogenic cell death (protection against tumour growth): failed to induce immunogenic apoptosis
